From publication PMC9950205, “Efficacy, safety, and pharmacokinetics of teduglutide in adult Japanese patients with short bowel syndrome and intestinal failure: two phase III studies with an extension” (Surgery Today, 2022)
Where two headings read alike, the source gives them in different places.

Assay: Plasma pharmacokinetics of teduglutide, non-compartmental analysis
Format: in vivo, human
Conditions: for half-life / AUC(0-inf) / AUC(0-t) / Cmax / Tmax: human, plasma, 0.05 mg/kg; for half-life: read-out: t½ (converted)
Experimental: In TED-C14-004 and SHP633-306, blood samples for PK evaluations were taken pre-dose and at 0.25, 0.5, 1, 2, 3, 4, 6, 8, 10, and 12 h post-dose during the first 12 weeks of treatment with teduglutide. In SHP633-307, patients continuing from study TED-C14-004 had blood samples for PK evaluations taken pre-dose and at […], and 1, 2, 3, 4, 6, 8, 10, and 12 h post-dose at the first extension study visit. Patients continuing from SHP633-306 had blood samples taken pre-dose and 1 and 2 h post-dose at the first extension study visit. Blood samples to test for the presence of antibodies to teduglutide were taken at baseline and weeks 12 and 24 in SHP633-306; ≥ 14 h after dosing at baseline and weeks 12 and 24, and then every 6 months thereafter in TED-C14-004; and every 3 months in SHP633-307.
Single-dose PK parameters were estimated using a non-compartmental analysis and included the maximum plasma concentration of teduglutide (Cmax), time to Cmax (tmax), terminal half-life elimination (t½), area under the plasma concentration–time curve (AUC) from time 0 to infinity (AUC0-inf), and AUC from time 0 to the last measurable concentration (AUC0-t).

[1] = sc, SHP633-306, plasma, 0.05 mg/kg SC once daily, n = 7, mean ± SD
[2] = sc, TED-C14-004, plasma, 0.05 mg/kg SC once daily, n = 8, mean ± SD
[3] = subcutaneous, SHP633-307, patients from TED-C14-004, first extension study visit, mean ± SD

## CC[C@H](C)[C@H](NC(=O)[C@H](Cc1ccccc1)NC(=O)[C@H](CC(=O)O)NC(=O)[C@H](CCCNC(=N)N)NC(=O)[C@H](C)NC(=O)[C@H](C)NC(=O)[C@H](CC(C)C)NC(=O)[C@H](CC(N)=O)NC(=O)[C@H](CC(=O)O)NC(=O)[C@H](CC(C)C)NC(=O)[C@@H](NC(=O)[C@@H](NC(=O)[C@H](CC(N)=O)NC(=O)[C@H](CCSC)NC(=O)[C@H](CCC(=O)O)NC(=O)[C@H](CC(=O)O)NC(=O)[C@H](CO)NC(=O)[C@H](Cc1ccccc1)NC(=O)[C@H](CO)NC(=O)CNC(=O)[C@H](CC(=O)O)NC(=O)CNC(=O)[C@@H](N)Cc1c[nH]cn1)[C@@H](C)O)[C@@H](C)CC)C(=O)N[C@@H](CC(N)=O)C(=O)N[C@@H](Cc1c[nH]c2ccccc12)C(=O)N[C@@H](CC(C)C)C(=O)N[C@H](C(=O)N[C@@H](CCC(N)=O)C(=O)N[C@H](C(=O)N[C@@H](CCCCN)C(=O)N[C@H](C(=O)N[C@H](C(=O)N[C@@H](CC(=O)O)C(=O)O)[C@@H](C)O)[C@@H](C)CC)[C@@H](C)O)[C@@H](C)CC [teduglutide]
SHP633-307, patients from SHP633-306, sparse PK sampling, suggests no accumulation
  Pre-dose concentrations after multiple dosing: below the lower limit quantification
sc, SHP633-306, plasma, 0.05 mg/kg SC once daily, n = 6, mean ± SD
  half-life: 1.1 ± 0.2 h
[1]
  AUC(0-inf): 252 ± 85.4 ng·h/mL
  AUC(0-t): 240 ± 80.7 ng·h/mL
  Cmax: 49.5 ± 16.4 ng/mL
  Tmax: 3.6 ± 1.6 h
[2]
  AUC(0-inf): 204 ± 51.1 ng·h/mL
  AUC(0-t): 201 ± 51.6 ng·h/mL
  Cmax: 49.7 ± 19.7 ng/mL
  Tmax: 2.6 ± 1 h
  half-life: 1.2 ± 0.7 h
[3]
  AUC(0-inf): 209 ± 72.7 ng·h/mL
  AUC(0-t): 200 ± 71.6 ng·h/mL
  Cmax: 54.1 ± 18.7 ng/mL
  Tmax: 2.1 ± 0.4 h
